A word on the IC50: it is the concentration at which inhibition is half-maximal.

This assay concerns the target Angiotensin II receptor. Kind of assay: In vitro angiotensin II mesenteric artery receptor binding assay (test 1). As to conditions: rat mesenteric artery membrane fraction, 0.2 nM 125I-Ang II, 22°C, 90 minutes. The protocol: I) In vitro angiotensin II mesenteric artery receptor binding assay
According to the method (1) by Gunther et al., a membrane fraction was prepared from mesenteric artery of male rat, […] protein equivalent of it and 0.2 nM ^125I-Ang II as well as various concentrations of test compounds were incubated at 22°C for 90 minutes in an incubation buffer (50 mM Tris-HCl, 120 mM NaCl, 5 mM MgCl2. 0.25% bovine serum albumin, pH 7.2) (reaction volume; 200 µl). The incubated was cooled, and the reaction was stopped by addition of ice-cooled phosphate buffer (10 mM phosphate, 140 mM NaCI, pH 7.4, hereinafter referred to as PBS), and then the reaction solution was filtered through a glass fiber filter (Whatman CF/B), the filter was washed, dried, and then the radioactivity of captured ^125I-angiotensin II which bound to the receptor was measured by a γ-counter. Non-specific bound amount was obtained from the reaction in the presence of 1 µM of unlabeled angiotensin II. […] Res., 17:278-286, 1980].
In turn, “2-n-butyl-5-hydroxymethyl-8-methyl-5,6,7,8-tetrahydro-1H,4H-1,3,4a,8a-tetraza-cyclopentanaphthalene-9-one [Compound No. 541]” gave an IC50 of more than 100 nM.

“2-n-butyl-8-hydroxymethyl-5-methyl-5,6,7,8-tetrahydro-1H,4H-1,3,4a,8a-tetraza-cyclopentanaphthalene-9-one [Compound No. 542]” registered an IC50 of 34 nM.

The molecule `CCCCc1nc2c(=O)n3n(c(=O)c2n1Cc1ccc(-c2ccccc2-c2nn[nH]n2)cc1)CCCC3` [Compound No. 47, 2-n-butyl-5,6,7,8-tetrahydro-1-[(2'-(1H-tetrazol-5-yl)biphenyl-4-yl)methyl]-1H-1,3,4a,8a-tetraza-cyclopentanaphthalene-4,9-dione] came in with an IC50 of 5.3 nM.

With `CCCc1nc2c(=O)n3n(c(=O)c2n1Cc1ccc(-c2ccccc2-c2nn[nH]n2)cc1)CC(C)=C(C)C3` [Compound No. 67, 5,8-dihydro-6,7-dimethyl-2-n-propyl-1-[(2'-(1H-tetrazol-5-yl)biphenyl-4-yl)methyl]-1H-1,3,4a,8a-tetraza-cyclopentanaphthalene-4,9-dione], the IC50 amounted to 14 nM.

`CCCCc1nc2c(=O)n3n(c(=O)c2n1Cc1ccc(-c2ccccc2-c2nn[nH]n2)cc1)C1(C(=O)OC)CCC3CC1` [Compound No. 156, methyl 2-n-butyl-5,8-ethano-4,9-dioxo-5,6,7,8-tetrahydro-1-[{2'-(1H-tetrazol-5-yl)biphenyl-4-yl}methyl]-1H-1,3,4a,8a-tetraza-cyclopentanaphthalene-8-carboxylate] returned an IC50 of 69 nM.

The molecule `CCCCc1nc2c(=O)n3n(c(=O)c2n1Cc1ccc(-c2ccccc2-c2nn[nH]n2)cc1)C1CCC3(C(=O)OC)CC1` [Compound No. 159, methyl 2-n-butyl-5,8-ethano-4,9-dioxo-5,6,7,8-tetrahydro-1-[{2'-(1H-tetrazol-5-yl)biphenyl4-yl}methyl]-1H-1,3,4a,8a-tetraza-cyclopentanaphthalene-5-carboxylate] yielded an IC50 of 5.1 nM.

For the molecule `CCCCc1nc2c(=O)n3n(c(=O)c2n1Cc1ccc(-c2ccccc2-c2nn[nH]n2)cc1)C1(C(=O)OCC)CCC3CC1` [Compound No. 198, ethyl 2-n-butyl-4,9-dioxo-5,8-ethano-5,6,7,8-tetrahydro-1-[{2'-(1H-tetrazol-5-yl)biphenyl-4-yl}methyl]-1H-1,3,4a,8a-tetraza-cyclopentanaphthalene-8-carboxylate], the IC50 was more than 100 nM.

For `CCCc1nc2c(=O)n3n(c(=O)c2n1Cc1ccc(-c2ccccc2-c2nnn[nH]2)cc1)C(C(=O)N(CC)CC)CCC3C` (stereo not drawn) [Compound No. 205, 4,9-dioxo-5-methyl-2-n-propyl-5,6,7,8-tetrahydro-1-[{2'-(1H-tetrazol-5-yl)biphenyl-4-yl}methyl]-1H-1,3,4a,8a-tetraza-cyclopentanaphthalene-8-carboxy-N,N-diethylamide], the IC50 amounted to 47 nM.

On to `CCCc1nc2c(=O)n3n(c(=O)c2n1Cc1ccc(-c2ccccc2-c2nnn[nH]2)cc1)C(C(=O)NC(C)(C)C)CCC3C` (stereo not drawn) [Compound No. 209, 4,9-dioxo-5-methyl-2-n-propyl-5,6,7,8-tetrahydro-1-[{2'-(1H-tetrazol-5-yl)biphenyl-4-yl}methyl]-1H-1,3,4a,8a-tetraza-cyclopentanaphthalene-8-carboxy-N-t-butylamide], for which the IC50 was 58 nM.

As for `CCCCc1nc2c(=O)n3n(c(=O)c2n1Cc1ccc(-c2ccccc2-c2nnn[nH]2)cc1)C(C(=O)NC(C)(C)C)CCC3C` (stereo not drawn) [Compound No. 210, 2-n-butyl-4,9-dioxo-5-methyl-5,6,7,8-tetrahydro-1-[{2'-(1H-tetrazol-5-yl)biphenyl-4-yl}methyl]-1H-1,3,4a,8a-tetraza-cyclopentanaphthalene-8-carboxy-N-t-butylamide], the IC50 came to 29 nM.

Turning to `CCCc1nc2c(=O)n3n(c(=O)c2n1Cc1ccc(-c2ccccc2-c2nnn[nH]2)cc1)C1(COCC(=O)OC(C)(C)C)CCC3CC1` [Compound No. 225, 8-t-butoxycarboxylmethoxymethyl-5,8-ethano-2-n-propyl-5,6,7,8-tetrahydro-1-[{2'-(1H-tetrazol-5-yl)biphenyl-4-yl}methyl]-1H-1,3,4a,8a-tetraza-cyclopentanaphthalene-4,9-dione], the IC50 worked out at 66 nM.

`CCCc1nc2c(=O)n3n(c(=O)c2n1Cc1ccc(-c2ccccc2-c2nnn[nH]2)cc1)C1CCC3(COCC(C)O)CC1` (stereo not drawn) [Compound No. 227, 5,8-ethano-5-(2-hydroxypropyl)methoxynethyl-2-n-propyl-5,6,7,8-tetrahydro-1-[{2'-(1H-tetrazol-5-yl)biphenyl-4-yl}methyl]-1H-1,3,4a,8a-tetraza-cyclopentanaphthalene-4,9-dione]: the IC50 amounted to 38 nM.

In turn, `CCCc1nc2c(=O)n3n(c(=O)c2n1Cc1ccc(-c2ccccc2-c2nnn[nH]2)cc1)C1(COCC(C)O)CCC3CC1` (stereo not drawn) [Compound No. 229, 5,8-ethano-8-(2-hydroxypropyl)methoxymethyl-2-n-propyl-5,6,7,8-tetrahydro-1-[{2'-(1H-tetrazol-5-yl)biphenyl-4-yl}methyl]-1H-1,3,4a,8a-tetraza-cyclopentanaphthalene-4,9-dione] returned an IC50 of 8.7 nM.

`CCCc1nc2c(=O)n3n(c(=O)c2n1Cc1ccc(-c2ccccc2-c2nn[nH]n2)cc1)C1(C(=O)N(CC)CC)CCC3CC1` [Compound No. 233, 4,9-dioxo-5,8-ethano-2-n-propyl-5,6,7,8-tetrahydro-1-[{2'-(1H-tetrazol-5-yl)biphenyl-4-yl}methyl]-1H-1,3,4a,8a-tetraza-cyclopentanaphthalene-8-carboxy-N,N-diethylamide]: the IC50 was more than 100 nM.

Turning to `CCCCc1nc2c(=O)n3n(c(=O)c2n1Cc1ccc(-c2ccccc2-c2nn[nH]n2)cc1)C1(C(=O)NC(C)(C)C)CCC3CC1` [Compound No. 238, 2-n-butyl-4,9-dioxo-5,8-ethano-5,6,7,8-tetrahydro-1-[{2'-(1H-tetrazol-5-yl)biphenyl-4-yl}methyl]-1H-1,3,4a,8a-tetraza-cyclopentanaphthalene-8-carboxy-N-t-butylamide], the IC50 was more than 100 nM.

The molecule `CCCc1nc2c(=O)n3n(c(=O)c2n1Cc1ccc(-c2ccccc2-c2nn[nH]n2)cc1)C1CCC3(C(=O)N(CCO)CCO)CC1` [Compound No. 239, 4,9-dioxo-5,8-ethano-2-n-propyl-5,6,7,8-tetrahydro-1-[{2'-(1H-tetrazol-5-yl)biphenyl-4-yl}methyl]-1H-1,3,4a,8a-tetraza-cyclopentanaphthalene-5-carboxy-N,N-bis(2-hydroxyethyl)amide] gave an IC50 of more than 100 nM.

Molecule `CCCc1nc2c(=O)n3n(c(=O)c2n1Cc1ccc(-c2ccccc2-c2nn[nH]n2)cc1)C1(C(=O)N(CCO)CCO)CCC3CC1` [Compound No. 241, 4,9-dioxo-5,8-ethano-2-n-propyl-5,6,7,8-tetrahydro-1-[{2'-(1H-tetrazol-5-yl)biphenyl-4-yl}methyl]-1H-1,3,4a,8a-tetraza-cyclopentanaphthalene-8-carboxy-N,N-bis(2-hydroxyethyl)amide] registered an IC50 of 25 nM.

Turning to `CCCc1nc2c(=O)n3n(c(=O)c2[nH]1)C(C)CCC3C` (stereo not drawn) [Compound No. 280, 5,8-dimethyl-2-n-propyl-5 6,7,8-tetrahydro-1H-1,3,4a,8a-tetraza-cyclopentanaphthalene-4,9-dione], the IC50 came to 4.6 nM.

Source of the values: patent publication EP0609289B1, “IMIDAZOLE DERIVATIVES AND PHARMACEUTICAL COMPOSITIONS CONTAINING THE SAME” (THE UPJOHN COMPANY, priority 1991, dated 1993).
